Reference: the NIST ThermoML archive (doi:10.1016/j.jct.2012.08.003)

Key:
[1] = for molar entropy: 101.33 kPa
[2] = molar heat capacity at constant pressure; conditions: 101.33 kPa
[3] = Molar enthalpy of transition or fusion; conditions: Crystal

[Cs+].[F-] [cesium fluoride (CsF)]
Conditions | molar entropy, [1] [J/K/mol] | molar heat capacity at constant pressure, [2] [J/K/mol]
5 K, Crystal, Vacuum adiabatic calorimetry | 0.08 | 0.16
10 K, Crystal, Vacuum adiabatic calorimetry | 0.49 | 1.3
15 K, Crystal, Vacuum adiabatic calorimetry | 1.54 | 4.39
20 K, Crystal, Vacuum adiabatic calorimetry | 3.34 | 8.57
25 K, Crystal, Vacuum adiabatic calorimetry | 5.65 | 12.33
30 K, Crystal, Vacuum adiabatic calorimetry | 8.2 | 15.77
35 K, Crystal, Vacuum adiabatic calorimetry | 10.86 | 18.9
40 K, Crystal, Vacuum adiabatic calorimetry | 13.57 | 21.75
45 K, Crystal, Vacuum adiabatic calorimetry | 16.28 | 24.36
50 K, Crystal, Vacuum adiabatic calorimetry | 18.97 | 26.72
60 K, Crystal, Vacuum adiabatic calorimetry | 24.21 | 30.78
70 K, Crystal, Vacuum adiabatic calorimetry | 29.21 | 34.08
80 K, Crystal, Vacuum adiabatic calorimetry | 33.94 | 36.74
90 K, Crystal, Vacuum adiabatic calorimetry | 38.4 | 38.87
100 K, Crystal, Vacuum adiabatic calorimetry | 42.59 | 40.59
110 K, Crystal, Vacuum adiabatic calorimetry | 46.53 | 42.2
120 K, Crystal, Vacuum adiabatic calorimetry | 50.27 | 43.53
130 K, Crystal, Vacuum adiabatic calorimetry | 53.8 | 44.7
140 K, Crystal, Vacuum adiabatic calorimetry | 57.15 | 45.59
150 K, Crystal, Vacuum adiabatic calorimetry | 60.32 | 46.3
160 K, Crystal, Vacuum adiabatic calorimetry | 63.33 | 46.86
170 K, Crystal, Vacuum adiabatic calorimetry | 66.18 | 47.31
180 K, Crystal, Vacuum adiabatic calorimetry | 68.9 | 47.69
190 K, Crystal, Vacuum adiabatic calorimetry | 71.49 | 48
200 K, Crystal, Vacuum adiabatic calorimetry | 73.95 | 48.28
210 K, Crystal, Vacuum adiabatic calorimetry | 76.32 | 48.51
220 K, Crystal, Vacuum adiabatic calorimetry | 78.58 | 48.73
230 K, Crystal, Vacuum adiabatic calorimetry | 80.75 | 48.93
240 K, Crystal, Vacuum adiabatic calorimetry | 82.84 | 49.12
250 K, Crystal, Vacuum adiabatic calorimetry | 84.84 | 49.3
260 K, Crystal, Vacuum adiabatic calorimetry | 86.78 | 49.48
270 K, Crystal, Vacuum adiabatic calorimetry | 88.65 | 49.66
280 K, Crystal, Vacuum adiabatic calorimetry | 90.46 | 49.84
290 K, Crystal, Vacuum adiabatic calorimetry | 92.21 | 50.03
298.15 K, Crystal, Drop calorimetry | 93.6 | 50.19
298.15 K, Crystal, Vacuum adiabatic calorimetry | 93.6 | 50.19
300 K, Crystal, Drop calorimetry | 93.91 | 50.23
300 K, Crystal, Vacuum adiabatic calorimetry | 93.91 | 50.22
310 K, Crystal, Vacuum adiabatic calorimetry | 95.56 | 50.42
320 K, Crystal, Vacuum adiabatic calorimetry | 97.17 | 50.63
330 K, Crystal, Vacuum adiabatic calorimetry | 98.73 | 50.86
340 K, Crystal, Vacuum adiabatic calorimetry | 100.25 | 51.09
350 K, Crystal, Drop calorimetry | 101.76 | 51.72
350 K, Crystal, Vacuum adiabatic calorimetry | 101.74 | 51.33
400 K, Crystal, Drop calorimetry | 108.79 | 53.82
450 K, Crystal, Drop calorimetry | 115.27 | 56.28
500 K, Crystal, Drop calorimetry | 121.34 | 58.95
550 K, Crystal, Drop calorimetry | 127.09 | 61.78
600 K, Crystal, Drop calorimetry | 132.59 | 64.69
650 K, Crystal, Drop calorimetry | 137.88 | 67.68
700 K, Crystal, Drop calorimetry | 143.01 | 70.72
750 K, Crystal, Drop calorimetry | 148 | 73.8
800 K, Crystal, Drop calorimetry | 152.86 | 76.9
850 K, Crystal, Drop calorimetry | 157.61 | 80.02
900 K, Crystal, Drop calorimetry | 162.28 | 83.17
950 K, Crystal, Drop calorimetry | 166.86 | 86.32
973 K, Crystal, Drop calorimetry | 168.94 | 87.78
973 K, Liquid, Drop calorimetry | 191.65 | 70.56
1000 K, Liquid, Drop calorimetry | 193.58 | 70.56
1050 K, Liquid, Drop calorimetry | 197.03 | 70.56
1100 K, Liquid, Drop calorimetry | 200.31 | 70.56
1150 K, Liquid, Drop calorimetry | 203.44 | 70.56
1200 K, Liquid, Drop calorimetry | 206.45 | 70.56
1250 K, Liquid, Drop calorimetry | 209.33 | 70.56
1300 K, Liquid, Drop calorimetry | 212.1 | 70.56
1350 K, Liquid, Drop calorimetry | 214.76 | 70.56
1400 K, Liquid, Drop calorimetry | 217.32 | 70.56

Conditions | Normal melting temperature [°C]
[1], Crystal, DTA | 699.6

[3]
Conditions | Molar enthalpy of transition or fusion [kcal/mol]
DSC | 5.28
enthalpy increment functions | 5.11
